The values below come from patent US20250160366A1, “MEANS AND METHODS FOR MODULATING SECONDARY METABOLITE IN AN ANIMAL” (DSM IP Assets B.V., priority 2022, published 2025).

For data set [1] the following is noted: GABA supplementation at 30 g/MT; Li et al. 2015, Bi et al. 2020; cited from earlier work.
The conditions of data set [2]: OP at 1000 mg/kg feed, positive control 30 g GABA per ton of feed.
The conditions of data set [3]: in mice; cited from earlier work.

For the compound `NCCCC(=O)O` [GABA, Gamma-aminobutyric acid], in data set [1], the biting incidences result was “lower”, the growth performance entry is “increase” and the stress-related parameters result is listed as “improve”. In data set [2], the “fold change (compared to day 0) of plasma COR as stress indicator” value is 0.70 and the “fold change (compared to day 0) of plasma NPY as stress-resistance indicator” value is given as 0.51. In addition, the “plasma GABA fold change compared to day 0” value in data set [2] (day 12) came to 1.07. Besides, in data set [3], the “half-life of GABA in the body” value was “less than 17 min”.
